One may read the pIC50 as the negative decadic logarithm of the IC50, by convention in mol/L.

pIC50: −log10 of the molar value.

These results are taken from US7902373B2 (Pfizer Inc, priority 2006, dated 2011).

For the assay, the target named is human recombinant H-PGDS (Homo sapiens, UniProt O60760). Description: Fluorescence intensity h-PGDS TBA enzyme assay. The conditions noted are these: Examples up to 622 (and 3a, 3b). The assay is classed as biochemical.
Chain of human recombinant H-PGDS (O60760 whole entry): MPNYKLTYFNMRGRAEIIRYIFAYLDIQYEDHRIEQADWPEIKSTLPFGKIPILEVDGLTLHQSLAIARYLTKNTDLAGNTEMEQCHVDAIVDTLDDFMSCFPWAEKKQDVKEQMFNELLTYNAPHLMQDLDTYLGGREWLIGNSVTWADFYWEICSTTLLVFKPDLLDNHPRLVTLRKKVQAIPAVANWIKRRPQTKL
With `COC(=O)Cn1cc(CN2CCC(NC(=O)c3ccc(-c4cccc(F)c4)nc3)CC2)c2ccccc21` [Example 339, Methyl (3-{[4-({[6-(3-fluorophenyl)pyridin-3-yl]carbonyl}amino)piperidin-1-yl]methyl}-1H-indol-1-yl)acetate], the pIC50 was 8.93.

As to `O=C(NC1CCN(Cc2nc3c(s2)CCCC3)CC1)c1ccc(-c2cccc(F)c2)nc1` [Example 340, 6-(3-Fluorophenyl)-N-[1-(4,5,6,7-tetrahydro-1,3-benzothiazol-2-ylmethyl)piperidin-4-yl]nicotinamide], the pIC50 is 8.93.

For the molecule `O=C(NC1CCN(CC2=Cc3ccccc3OC2)CC1)c1ccc(-c2cccc(F)c2)nc1` [Example 341, N-[1-(2H-Chromen-3-ylmethyl)piperidin-4-yl]-6-(3-fluorophenyl)nicotinamide], the negative-log IC50 (pIC50) is 9.31. Take `O=C(NC1CCN(Cc2ccccc2-c2cncnc2)CC1)c1ccc(-c2cccc(F)c2)nc1` [Example 342, 6-(3-Fluorophenyl)-N-[1-(2-pyrimidin-5-ylbenzyl)piperidin-4-yl]nicotinamide]: the pIC50 is 9.55. Regarding `O=C(NC1CCN(Cc2cccn3cc(Br)nc23)CC1)c1ccc(-c2cccc(F)c2)nc1` [Example 343, N-{1-[(2-Bromoimidazo[1,2-a]pyridin-8-yl)methyl]piperidin-4-yl}-6-(3-fluorophenyl)nicotinamide], the negative-log IC50 (pIC50) was 8.72. With `Cc1onc(-c2ccccc2)c1CN1CCC(NC(=O)c2ccc(-c3cccc(F)c3)nc2)CC1` [Example 344, 6-(3-Fluorophenyl)-N-{1-[(5-methyl-3-phenylisoxazol-4-yl)methyl]piperidin-4-yl}nicotinamide], the negative logarithm of the IC50 (pIC50) is 9.76. Regarding `CC(C)(C)OC(=O)N1CCC(CN2CCC(NC(=O)c3ccc(-c4cccc(F)c4)nc3)CC2)C1` (stereo not shown) [Example 345, tert-Butyl 3-{[4-({[6-(3-fluorophenyl)pyridin-3-yl]carbonyl}amino)piperidin-1-yl]methyl}pyrrolidine-1-carboxylate], the pIC50 was 9.29. Turning to `CC(C)(C)C(=O)Nc1ncccc1CN1CCC(NC(=O)c2ccc(-c3cccc(F)c3)nc2)CC1` [Example 346, N-[1-({2-[(2,2-Dimethylpropanoyl)amino]pyridin-3-yl}methyl)piperidin-4-yl]-6-(3-fluorophenyl)nicotinamide], the pIC50 is 8.39.

Turning to `CC(C)(CNC(=O)OC(C)(C)C)CN1CCC(NC(=O)c2ccc(-c3cccc(F)c3)nc2)CC1` [Example 347, tert-Butyl {3-[4-({[6-(3-fluorophenyl)pyridin-3-yl]carbonyl}amino)piperidin-1-yl]-2,2-dimethylpropyl}carbamate], the negative-log IC50 (pIC50) was 9.24. For `O=C(NC1CCN(Cc2c(F)c(F)cc(F)c2F)CC1)c1ccc(-c2cccc(F)c2)nc1` [Example 348, 6-(3-Fluorophenyl)-N-[1-(2,3,5,6-tetrafluorobenzyl)piperidin-4-yl]nicotinamide], the pIC50 is 9.21. On to `O=C(NC1CCN(Cc2c[nH]c3c(F)c(F)c(F)c(F)c23)CC1)c1ccc(-c2cccc(F)c2)nc1` [Example 349, 6-(3-Fluorophenyl)-N-{1-[(4,5,6,7-tetrafluoro-1H-indol-3-yl)methyl]piperidin-4-yl}nicotinamide], for which the pIC50 was 8.53. For the molecule `O=C(NC1CCN(CC2CCOC2)CC1)c1ccc(-c2cccc(F)c2)nc1` (stereo not shown) [Example 350, 6-(3-Fluorophenyl)-N-[1-(tetrahydrofuran-3-ylmethyl)piperidin-4-yl]nicotinamide], the negative logarithm of the IC50 (pIC50) was 9.61.

`Cc1cc(CN2CCC(NC(=O)c3ccc(-c4cccc(F)c4)nc3)CC2)no1` [Example 351, 6-(3-Fluorophenyl)-N-{1-[(5-methylisoxazol-3-yl)methyl]piperidin-4-yl}nicotinamide]: the pIC50 was 9.27. In the case of `Cn1nccc1CN1CCC(NC(=O)c2ccc(-c3cccc(F)c3)nc2)CC1` [Example 352, 6-(3-Fluorophenyl)-N-{1-[(1-methyl-1H-pyrazol-5-yl)methyl]piperidin-4-yl}nicotinamide], the negative logarithm of the IC50 (pIC50) was 9.20.

In the case of `COc1ccc(CN2CCC(NC(=O)c3ccc(-c4cccc(F)c4)nc3)CC2)cn1` [Example 353, 6-(3-Fluorophenyl)-N-{1-[(6-methoxypyridin-3-yl)methyl]piperidin-4-yl}nicotinamide], the negative logarithm of the IC50 (pIC50) is 9.02.

Regarding `Cc1ccc(CN2CCC(NC(=O)c3ccc(-c4cccc(F)c4)nc3)CC2)cn1` [Example 354, 6-(3-Fluorophenyl)-N-{1-[(6-methylpyridin-3-yl)methyl]piperidin-4-yl}nicotinamide], the negative logarithm of the IC50 (pIC50) was 8.53. With `Cc1cc(CN2CCC(NC(=O)c3ccc(-c4cccc(F)c4)nc3)CC2)ccn1` [Example 355, 6-(3-Fluorophenyl)-N-{1-[(2-methylpyridin-4-yl)methyl]piperidin-4-yl}nicotinamide], the pIC50 was 9.29. In the case of `Cc1c(CN2CCC(NC(=O)c3ccc(-c4cccc(F)c4)nc3)CC2)cnn1-c1ccccc1` [Example 356, 6-(3-Fluorophenyl)-N-{1-[(5-methyl-1-phenyl-1H-pyrazol-4-yl)methyl]piperidin-4-yl}nicotinamide], the pIC50 is 8.70.

With `Cc1nc(-c2ccccc2)ncc1CN1CCC(NC(=O)c2ccc(-c3cccc(F)c3)nc2)CC1` [Example 357, 6-(3-Fluorophenyl)-N-{1-[(4-methyl-2-phenylpyrimidin-5-yl)methyl]piperidin-4-yl}nicotinamide], the pIC50 was 8.18. Turning to `O=C(NC1CCN(Cc2ccc(Oc3ccccc3)nc2)CC1)c1ccc(-c2cccc(F)c2)nc1` [Example 358, 6-(3-Fluorophenyl)-N-{1-[(6-phenoxypyridin-3-yl)methyl]piperidin-4-yl}nicotinamide], the pIC50 is 8.76. As for `O=C(NC1CCN(Cc2ccno2)CC1)c1ccc(-c2cccc(F)c2)nc1` [Example 359, 6-(3-Fluorophenyl)-N-[1-(isoxazol-5-ylmethyl)piperidin-4-yl]nicotinamide], the pIC50 was 9.35. Next, `CCC(C)CCN1CCC(NC(=O)c2ccc(-c3cccc(F)c3)nc2)CC1` (stereo not shown) [Example 360, 6-(3-Fluorophenyl)-N-[1-(3-methylpentyl)piperidin-4-yl]nicotinamide]: 8.56; `Cc1nn(C(C)C)c(C)c1CN1CCC(NC(=O)c2ccc(-c3cccc(F)c3)nc2)CC1` [Example 361, 6-(3-Fluorophenyl)-N-{1-[(1-isopropyl-3,5-dimethyl-1H-pyrazol-4-yl)methyl]piperidin-4-yl}nicotinamide]: 8.87; `Cc1nn(-c2ccc(F)cc2)c(C)c1CN1CCC(NC(=O)c2ccc(-c3cccc(F)c3)nc2)CC1` [Example 362, 6-(3-Fluorophenyl)-N-(1-{[1-(4-fluorophenyl)-3,5-dimethyl-1H-pyrazol-4-yl]methyl}piperidin-4-yl)nicotinamide]: 8.98. As for `O=C(NC1CCN(Cc2ccon2)CC1)c1ccc(-c2cccc(F)c2)nc1` [Example 363, 6-(3-Fluorophenyl)-N-[1-(isoxazol-3-ylmethyl)piperidin-4-yl]nicotinamide], the pIC50 was 9.52.

On to `COc1ccc(CN2CCC(NC(=O)c3ccc(-c4cccc(F)c4)nc3)CC2)cc1CN(C)C` [Example 364, N-(1-{3-[(Dimethylamino)methyl]-4-methoxybenzyl}piperidin-4-yl)-6-(3-fluorophenyl)nicotinamide], for which the pIC50 is 8.39.

For `COc1ccc(-n2ccnc2CN2CCC(NC(=O)c3ccc(-c4cccc(F)c4)nc3)CC2)cc1` [Example 365, 6-(3-Fluorophenyl)-N-(1-{[1-(4-methoxyphenyl)-1H-imidazol-2-yl]methyl}piperidin-4-yl)nicotinamide], the pIC50 was 9.89.

For `CC(C)c1cc(CN2CCC(NC(=O)c3ccc(-c4cccc(F)c4)nc3)CC2)n[nH]1` [Example 366], the pIC50 is 8.62.

For `O=C(NC1CCN(Cc2cccc(-n3cccn3)c2)CC1)c1ccc(-c2cccc(F)c2)nc1` [Example 367, 6-(3-Fluorophenyl)-N-{1-[3-(1H-pyrazol-1-yl)benzyl]piperidin-4-yl}nicotinamide], the pIC50 was 9.15. For the molecule `Nc1ncc(CN2CCC(NC(=O)c3ccc(-c4cccc(F)c4)nc3)CC2)cn1` [Example 368, N-{1-[(2-Aminopyrimidin-5-yl)methyl]piperidin-4-yl}-6-(3-fluorophenyl)nicotinamide], the pIC50 was 8.69.

Consider `Cc1cc(C)n(-c2cccc(CN3CCC(NC(=O)c4ccc(-c5cccc(F)c5)nc4)CC3)c2)n1` [Example 369, N-{1-[3-(3,5-Dimethyl-1H-pyrazol-1-yl)benzyl]piperidin-4-yl}-6-(3-fluorophenyl)nicotinamide], for which the negative logarithm of the IC50 (pIC50) was 8.87. `O=C(NC1CCN(Cc2cc(F)cc3c2OCOC3)CC1)c1ccc(-c2cccc(F)c2)nc1` [Example 370, N-{1-[(6-Fluoro-4H-1,3-benzodioxin-8-yl)methyl]piperidin-4-yl}-6-(3-fluorophenyl)nicotinamide]: the negative-log IC50 (pIC50) was 9.34. Take `O=C(NC1CCN(Cc2cccc3nsnc23)CC1)c1ccc(-c2cccc(F)c2)nc1` [Example 371, N-[1-(2,1,3-Benzothiadiazol-4-ylmethyl)piperidin-4-yl]-6-(3-fluorophenyl)nicotinamide]: the pIC50 was 9.36. For the molecule `Cc1cc(CN2CCC(NC(=O)c3ccc(-c4cccc(F)c4)nc3)CC2)n(C)n1` [Example 372, N-{1-[(1,3-Dimethyl-1H-pyrazol-5-yl)methyl]piperidin-4-yl}-6-(3-fluorophenyl)nicotinamide], the pIC50 was 9.01. Turning to `O=C(NC1CCN(Cc2csc(-c3ccccc3)n2)CC1)c1ccc(-c2cccc(F)c2)nc1` [Example 373, 6-(3-Fluorophenyl)-N-{1-[(2-phenyl-1,3-thiazol-4-yl)methyl]piperidin-4-yl}nicotinamide], the pIC50 is 8.63. Take `Cn1cnc(CN2CCC(NC(=O)c3ccc(-c4cccc(F)c4)nc3)CC2)c1` [Example 374, 6-(3-Fluorophenyl)-N-{1-[(1-methyl-1H-imidazol-4-yl)methyl]piperidin-4-yl}nicotinamide]: the pIC50 is 8.52. `O=C(NC1CCN(Cc2cccc(-n3cccn3)n2)CC1)c1ccc(-c2cccc(F)c2)nc1` [Example 375, 6-(3-Fluorophenyl)-N-(1-{[6-(1H-pyrazol-1-yl)pyridin-2-yl]methyl}piperidin-4-yl)nicotinamide]: the pIC50 was 9.18.
